US6855730B2, “3-methylidenyl-2-indolinone modulators of protein kinase” (Sugen, Inc., priority 1998, dated 2005)
Where a name gives a salt, the structure may show the parent alone.

Molecular target: T1, human flk-1 (Homo sapiens, UniProt P35968)
T1 construct: host or cells: Flk-1/NIH cells (NIH fibroblasts)
Assay: Biochemical FLK-1 assay (flk-1 autophosphorylation ELISA)
Conditions: read-out: bio FLK1 IC50 (μM) % if inhibition at 100
Protocol: This assay evaluates flk-1 autophosphorylation activity in vitro using ELISA.
Materials And Reagents • 1. 15 cm tissue culture dishes • 2. Flk-1/NIH cells: NIH fibroblast line over-expressing human flk-1clone 3 (SUGEN, Inc., obtained from MPI, Martinsried, Germany). • 3. Growth medium: DMEM plus heat inactivated 10% FBS and 2 mM Glutamine (Gibco-BRL). • 4. Starvation medium: DMEM plus 0.5% heat-inactivated FBS, 2 mM Glutamine (Gibco-BRL). • 5. […] L4 or E38 monoclonal antibody specific for flk-1, Purified by Protein-A agarose affinity chromatography (SUGEN, Inc.). • 7. PBS (Dulbecco's Phosphate-Buffered Saline) Gibco Cat. No. 450-1300EB). • 8. HNTG (see BIOCHEMICAL FGFR for preparation). • 9. Pierce BCA protein determination kit. • 10. Blocking buffer • 11. TBST (pH 7.0) • 12. Kinase Buffer • 13. Kinase Stop Solution: 200 mM EDTA. • 14. […] AB kit (Vector Laboratories Cat. No. PK 4000). • 16. DMSO • 17. NUNC 96-well V bottom polypropylene plates (Applied Scientific Cat. No. AS-72092). • 18. Turbo-TMB (Pierce). • 19. Turbo-TMB stop solution: 1 M H2SO4. • 20. ATP (Sigma Cat. No. A-7699). • 21. 20% DMSO in TBS (pH 7.0). Procedure
Cell Growth and Lysate Preparation. • 1. Seed cell into growth medium and grow for 2-3 days to 90-100% confluency at 37° C. and 5% CO2.
2. Remove the medium and wash the cells twice with PBS. Lyse with HNTG lysis buffer. Collect all lysates and vortex mix them for 20-30 seconds. • 3. Remove insoluble material by centrifugation (5-10 min at about 10,000 ×g). • 4. Determine the protein concentration using BCA kit. • 5. Partition lysate into 1 mg aliquots, store at −80° C.
Assay Procedure • 1. Coat Corning 96-well ELISA plates with 2 μg/well purified L4 (or E 38) in 100 μl of PBS. Store overnight at […] • 2. Remove unbound proteins from wells by inverting the plate to remove the liquid. Wash one time with dH2O, pat plate on paper towel to remove excess liquid. • 3. Block plates with 150 μl blocking buffer per well. Incubate for 45-60 minutes with shaking at 4° C. • 4. Remove the blocking buffer and wash the ELISA plate three times with dH2O and one time with TBST. Pat plate on paper towel to remove excess liquid. • 5. Dilute lysate in PBS to give final concentration of 50 μg/100 μl. Add 100 μl of diluted lysate to each well. Incubate with shaking at 4° C. overnight. • 6. Remove unbound proteins from wells by inverting the plate. Wash as in step 4. • 7. Add 80 μl of kinase buffer to wells (90 μl to negative control wells). • 8. Dilute test compounds (normally 10-fold) into wells of a polypropylene plate containing 20% DMSO in TBS. • 9. Add 10 μl of the diluted compounds to the ELISA wells containing immobilized flk-1 and shake. Control wells receive no compounds. • 10. From stock 1 mM ATP, prepare 0.3 mM ATP solution in dH2O (alternatively, kinase buffer may be used). • 11. Add 10 μl of 0.3 mM ATP to all wells except the negative controls. Incubate for 60 min. at room temperature with shaking. • 12. After 1 hr stop the kinase reaction by adding 11 μl 200 mM EDTA. Shake for 1-2 min. • 13. Wash the ELISA plate 4 times with dH2O and twice with TBST. • 14. Add 100 μl of 1:5000 biotinylated 4G10:TBST to all wells. Incubate 45 min with shaking at room temperature. • 15. While the above is incubating, add 50 μl of solutions A & B from the ABC kit to 10 ml of TBST. These solutions must be combined approximately 30 min prior to use. • 16. Wash plates as in step 4. • 17. Add 100 μl of the preformed A & B complex to all wells. Incubate 30 min with shaking at room temperature. • 18. Wash plates as in step 4. • 19. Add 100 μl turbo-TMB. Shake at room temperature for 10-15 min. • 20. When the color in the positive control wells reaches an absorbance of about 0.35-0.4, stop the reaction with 100 μl of turbo-TMB stop solution. • 21. Read plates on Dynatech MR7000 ELISA reader, test filter: 450 nM, reference filter: 410 nM.

T1 sequence (P35968 20-1356): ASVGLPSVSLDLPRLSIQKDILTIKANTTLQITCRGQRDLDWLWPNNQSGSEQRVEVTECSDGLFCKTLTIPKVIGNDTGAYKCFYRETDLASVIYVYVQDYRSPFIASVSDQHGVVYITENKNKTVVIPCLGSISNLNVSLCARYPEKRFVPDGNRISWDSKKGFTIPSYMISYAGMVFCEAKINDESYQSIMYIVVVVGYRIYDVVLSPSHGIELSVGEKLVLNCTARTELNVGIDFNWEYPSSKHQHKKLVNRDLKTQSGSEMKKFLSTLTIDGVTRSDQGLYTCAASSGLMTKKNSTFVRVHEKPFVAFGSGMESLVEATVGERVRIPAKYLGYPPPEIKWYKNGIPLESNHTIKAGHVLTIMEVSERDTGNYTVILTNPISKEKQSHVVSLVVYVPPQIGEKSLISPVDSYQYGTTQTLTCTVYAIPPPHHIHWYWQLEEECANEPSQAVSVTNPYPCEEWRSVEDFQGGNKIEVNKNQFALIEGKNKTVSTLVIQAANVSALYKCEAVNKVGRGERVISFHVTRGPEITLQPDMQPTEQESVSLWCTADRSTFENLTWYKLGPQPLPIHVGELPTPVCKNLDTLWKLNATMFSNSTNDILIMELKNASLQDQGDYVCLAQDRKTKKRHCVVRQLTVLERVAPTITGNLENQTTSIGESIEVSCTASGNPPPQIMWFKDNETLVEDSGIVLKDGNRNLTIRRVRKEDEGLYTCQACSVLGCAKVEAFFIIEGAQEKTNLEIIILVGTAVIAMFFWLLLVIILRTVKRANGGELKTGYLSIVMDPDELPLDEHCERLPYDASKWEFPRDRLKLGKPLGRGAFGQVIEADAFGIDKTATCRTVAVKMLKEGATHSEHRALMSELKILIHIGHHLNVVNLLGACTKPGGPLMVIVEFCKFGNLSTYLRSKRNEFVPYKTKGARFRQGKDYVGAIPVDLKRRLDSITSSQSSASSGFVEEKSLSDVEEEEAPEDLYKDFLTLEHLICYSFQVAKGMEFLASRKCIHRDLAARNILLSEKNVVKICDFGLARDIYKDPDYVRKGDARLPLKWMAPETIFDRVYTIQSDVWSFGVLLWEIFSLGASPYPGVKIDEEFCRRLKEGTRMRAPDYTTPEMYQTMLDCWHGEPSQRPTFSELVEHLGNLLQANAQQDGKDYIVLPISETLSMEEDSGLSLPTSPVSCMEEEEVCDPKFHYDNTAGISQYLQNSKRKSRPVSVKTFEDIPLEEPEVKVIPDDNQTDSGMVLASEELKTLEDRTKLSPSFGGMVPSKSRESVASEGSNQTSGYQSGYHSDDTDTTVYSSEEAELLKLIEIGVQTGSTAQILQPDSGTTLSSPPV

Cc1c(/C=C2\C(=O)Nc3ccc(C(=O)O)cc32)[nH]c2ccccc12 [Example 156, 3-(3-Methyl-1H-indol-2-ylmethylene)-2-oxo-2,3-dihydro-1H-indole-5-carboxylic acid (piperidine salt)]
IC50: 4.2 µM
